Data: the supplement of paper PMC11061612

Columns and labels:
[1] = system: HOP-62 (Lung Adenocarcinoma); assay: Bliss excess, mean over the matrix (fraction); higher = more synergy
Method in brief: (§1)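 After 24 hours at 37°C and 5% CO2 in 1536-well plates, cells in DMEM/F12 or RPMI plus 10% FBS received two-drug dose matrices for 72 hours. Viability came from CellTiter-Glo 2.0 luminescence and was scaled as inhibition, anchored at 0 by vehicle wells and at 1 by blank wells. Combination Emax is taken as the second-highest inhibition in the matrix, and Bliss excess as the observed combination effect less EA + EB − EA·EB, with EA and EB the single-agent effects.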

[2] = system: OSC-20 (Oral Cavity Carcinoma); assay: as above
Method in brief: as §1

[3] = system: C-4-I (Cervical Carcinoma); assay: as above
Method in brief: as §1

[4] = system: VA-ES-BJ (Other Solid Carcinomas); assay: as above
Method in brief: as §1

[5] = system: NEC8 (Other Solid Carcinomas); assay: as above
Method in brief: as §1

[6] = system: OVCAR-4 (Ovarian Carcinoma); assay: as above
Method in brief: as §1

[7] = system: TE-1 (Esophageal Squamous Cell Carcinoma); assay: as above
Method in brief: as §1

[8] = system: SCC-15 (Oral Cavity Carcinoma); assay: as above
Method in brief: as §1

[9] = system: NUGC-3 (Gastric Carcinoma); assay: as above
Method in brief: as §1

[10] = system: HSC-4 (Oral Cavity Carcinoma); assay: as above
Method in brief: as §1

[11] = system: SU8686 (Pancreatic Carcinoma); assay: as above
Method in brief: as §1

[12] = system: NCI-H1915 (Non-Small Cell Lung Carcinoma); assay: as above
Method in brief: as §1

[13] = system: OE19 (Esophageal Adenocarcinoma); assay: as above
Method in brief: as §1

PWR-1E (Non-Cancerous) [14] = assay: as above
Method in brief: as §1

[15] = system: KMOE-2 (Acute Myeloid Leukemia); assay: as above
Method in brief: as §1

[16] = system: HGC-27 (Gastric Carcinoma); assay: as above
Method in brief: as §1

[17] = system: HOP-62 (Lung Adenocarcinoma); assay: combination Emax (second highest fraction inhibited in the dose matrix, 72 h); higher = more inhibition; extreme values may be limits of the assay
Method in brief: as §1

[18] = system: OSC-20 (Oral Cavity Carcinoma); assay: as above
Method in brief: as §1

[19] = system: C-4-I (Cervical Carcinoma); assay: as above
Method in brief: as §1

[20] = system: VA-ES-BJ (Other Solid Carcinomas); assay: as above
Method in brief: as §1

[21] = system: NEC8 (Other Solid Carcinomas); assay: as above
Method in brief: as §1

[22] = system: OVCAR-4 (Ovarian Carcinoma); assay: as above
Method in brief: as §1

[23] = system: TE-1 (Esophageal Squamous Cell Carcinoma); assay: as above
Method in brief: as §1

[24] = system: SCC-15 (Oral Cavity Carcinoma); assay: as above
Method in brief: as §1

[25] = system: NUGC-3 (Gastric Carcinoma); assay: as above
Method in brief: as §1

[26] = system: HSC-4 (Oral Cavity Carcinoma); assay: as above
Method in brief: as §1

[27] = system: SU8686 (Pancreatic Carcinoma); assay: as above
Method in brief: as §1

[28] = system: NCI-H1915 (Non-Small Cell Lung Carcinoma); assay: as above
Method in brief: as §1

[29] = system: OE19 (Esophageal Adenocarcinoma); assay: as above
Method in brief: as §1

PWR-1E (Non-Cancerous) [30] = assay: as above
Method in brief: as §1

[31] = system: KMOE-2 (Acute Myeloid Leukemia); assay: as above
Method in brief: as §1

[32] = system: HGC-27 (Gastric Carcinoma); assay: as above
Method in brief: as §1
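Throughout, for Bliss excess, mean over the matrix: after 72 h of two-drug dosing.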

Row | Structure (SMILES) | Bliss excess [1] | Bliss excess [2] | Bliss excess [3] | Bliss excess [4] | Bliss excess [5] | Bliss excess [6] | Bliss excess [7] | Bliss excess [8] | Bliss excess [9] | Bliss excess [10] | Bliss excess [11] | Bliss excess [12] | Bliss excess [13] | Bliss excess (PWR-1E (Non-Cancerous) [14]) | Bliss excess [15] | Bliss excess [16] | combination Emax [17] | combination Emax [18] | combination Emax [19] | combination Emax [20] | combination Emax [21] | combination Emax [22] | combination Emax [23] | combination Emax [24] | combination Emax [25] | combination Emax [26] | combination Emax [27] | combination Emax [28] | combination Emax [29] | combination Emax (PWR-1E (Non-Cancerous) [30]) | combination Emax [31] | combination Emax [32]
1 | COc1nnc2ccc(N3CCC(c4ccc(OCCN5CCN(C)C(=O)[C@H]5C)cc4)CC3)nn12 [AZD5153] + CN(CC[C@H](CSC1=CC=CC=C1)NC2=C(C=C(C=C2)S(=O)(=O)NC(=O)C3=CC=C(C=C3)N4CCC(CC4)[C@H](C5=CC=CC=C5C6=CC=C(C=C6)Cl)O)S(=O)(=O)C(F)(F)F)CCO [AZD4320] (first compound max 1 µM, 7x7, partner max 1 µM) | 0.011 | -0.0543 | 0.0692 | 0.0839 | 0.0236 | 0.0377 | -0.0193 | 0.001 | 0.0423 | -0.0287 | -0.0373 | 0.0678 | 0.0208 | 0.0243 | 0.0295 | -0.0329 | 0.635 | 0.132 | 0.762 | 0.517 | 0.962 | 0.458 | 0.485 | 0.39 | 0.639 | 0.217 | 0.0559 | 0.57 | 0.501 | 0.714 | 0.993 | 0.772
2 | CC(=O)c1c(C)c2cnc(Nc3ccc(N4CCNCC4)cn3)nc2n(C2CCCC2)c1=O [Palbociclib] + CN(CC[C@H](CSC1=CC=CC=C1)NC2=C(C=C(C=C2)S(=O)(=O)NC(=O)C3=CC=C(C=C3)N4CCC(CC4)[C@H](C5=CC=CC=C5C6=CC=C(C=C6)Cl)O)S(=O)(=O)C(F)(F)F)CCO [AZD4320] (first compound max 10 µM, 7x7, partner max 1 µM) | -0.0777 | -0.0381 | -0.0686 | -0.0288 | -0.0337 | -0.0354 | -0.0322 | -0.0694 | -0.0659 | -0.0833 | -0.0447 | -0.0273 | -0.0369 | -0.0204 | -0.0213 | 0.0123 | 0.332 | 0.182 | 0.372 | 0.309 | 0.209 | 0.22 | 0.439 | 0.206 | 0.714 | 0.0868 | 0.0398 | 0.491 | 0.467 | 0.278 | 0.96 | 0.764
3 | C[C@@H](c1ccc2nccn2c1)n1nnc2ncc(-c3cnn(C)c3)nc21 [Savolitinib] + CN(CC[C@H](CSC1=CC=CC=C1)NC2=C(C=C(C=C2)S(=O)(=O)NC(=O)C3=CC=C(C=C3)N4CCC(CC4)[C@H](C5=CC=CC=C5C6=CC=C(C=C6)Cl)O)S(=O)(=O)C(F)(F)F)CCO [AZD4320] (first compound max 1 µM, 7x7, partner max 1 µM) | -0.0729 | -0.0626 | -0.0399 | -0.029 | -0.0021 | -0.0293 | -0.0316 | -0.0604 | -0.0429 | -0.0591 | -0.0255 | -0.0519 | -0.0091 | -0.0221 | -0.0537 | -0.0098 | 0.122 | 0.129 | 0.234 | 0.182 | 0.302 | 0.126 | 0.289 | 0.29 | 0.279 | 0.24 | 0.173 | 0.132 | 0.22 | 0.211 | 0.59 | 0.233
